Measurements from patent publication US8933099B2, “Monocyclic pyridine derivative” (Eisai R&D Management Co., Ltd., priority 2013, dated 2015).

Key:
[1] = test system: human stomach cancer cell line SNU-16 (FGFR2 gene amplification); assay: SNU-16 growth inhibition assay; type: cell-based; conditions: Homo sapiens, SNU-16, 72 h; cell growth, 3 days, Cell Counting Kit-8; read-out: SNU-16 (IC50 (nM))
Procedure: In this assay, the growth inhibitory activity of a test substance in a human stomach cancer cell line harboring FGFR2 gene amplification is measured.
Then, 10 μL of Cell Counting Kit-8 (Dojindo Laboratories, CK04) was added to each well, and the resultant was incubated for 1 to 2 hours in a 5% CO2 incubator (37° C.) to cause a color reaction. The absorbance value was measured with ENVISION™ (PerkinElmer Co., Ltd.) at 450 nm.

[2] = biological target: FGFR1 protein (Homo sapiens (Human), UniProt P11362); assay: biochemical
[3] = test system: normal human umbilical vein endothelial cells (HUVEC); assay: HUVEC growth inhibition assay (VEGF-induced); type: cell-based; conditions: Homo sapiens, HUVEC, 72 h; growth in the presence of VEGF 10 ng/mL, 3 days; read-out: HUVEC (IC50 (nM))
Procedure: The absorbance value was measured with ENVISION™ (PerkinElmer Co., Ltd.) at 450 nm. The absorbance values of the wells without adding the test substance but with VEGF addition was defined as 100% and the absorbance values of the wells with neither the test substance nor VEGF addition was defined as 0%.

[4] = test system: human stomach cancer cell line SNU-16 xenograft; assay: Antitumor effect in SNU-16 subcutaneous xenograft model in mice; type: in vivo; conditions: oral, once a day for 11 days, tumor volume last day
Source text: Human stomach cancer cell line SNU-16, which had been cultured in an RPMI-1640 medium containing 10% FBS, and penicillin and streptomycin, were adjusted to a concentration of 1×10^8 cells/mL with Hanks' Balanced Salt Solution (GIBCO #24020) to prepare a cell suspension, and the suspension was mixed with […] (BD Biosciences, Cat#354234) in a ratio of 1:1 to prepare a cell suspension in a concentration of 5×10^7 cells/ml. The cell suspension was inoculated in a volume of 100 ut into a subcutaneous part of a right flank of nude mice, 6 to 7 weeks of ages (BALB/cAiel-nu/nu, female, Clea Japan Inc.). Seven days after cell inoculation, the shortest diameter and the longest diameter of a tumor in each mouse were measured by using an electronic digital caliper (Digimatie™ caliper, Mitutoyo Corporation), so as to calculate the volume of the tumor in accordance with the following calculation formula: Tumor volume(mm^3)Longest diameter(mm)×Shortest diameter(mm)×Shortest diameter(mm)/2
(§1) On the basis of the volumes of tumors obtained on the first day of administration, the nude mice were grouped such that averages of the tumor volumes were substantially equal among the groups. Each test substance was dissolved in DMSO, Tween 80 was added thereto to prepare a solution in a 10-fold concentration and the thus prepared solution was stored at the freezer before use. Immediately before the administration, the stock solution was diluted with a 5% glucose solution to obtain a final administration solution (in which a ratio in % among DMSO, Tween 80 and the 5% glucose solution was 3.5:6.5:90). Each evaluation sample was orally administered to test substance administration group at a volume of 0.4 mL per 20 g of body weight once a day continuously for 11 days, and in a control group, an administration solvent was orally administered under the same conditions. Incidentally, the experiment was conducted on groups each consisting of 5 mice.
(§2) With respect to each of the control group and test substance administration group, a ratio of the weight measured on the final day to the weight measured on the first day (relative body weight: RBW) was calculated. If a ratio of the RBW of the test substance administration group/the RBW of the control group is 0.9 or mom, the corresponding test substance administration group was defined as a well-tolerated. In the test substance administration group thus defined as well-tolerated, a ratio of the tumor volume of the test substance-dosing group to the tumor volume of the control group obtained on the last day (TIC) (%) was calculated, and shown in Table 21.

[5] = test system: human lung cancer cell line NCI-H1581 xenograft; assay: Antitumor effect in NCI-H1581 subcutaneous xenograft model in mice; type: in vivo; conditions: oral, once a day for 11 days, tumor volume last day
Procedure: Human lung cancer cell line NCI-H1581, which had been cultured in RPMI-1640 medium containing 10% FBS, and penicillin and streptomycin, were adjusted to a concentration of 1×10^8 cells/mL with Hanks' Balanced Salt Solution(GIBCO #24020) to prepare a cell suspension, and the suspension was mixed with […] in a ratio of 1:1 to prepare a cell suspension in a concentration of 5×10^7 cells/mL. The cell suspension was inoculated in a volume of 100 μL into a subcutaneous part of a right flank of each of nude mice, 6 to 7 weeks of ages (BALB/cAJcl-nu/nu, female, Clea Japan Inc.). Ten to 11 days after the cell inoculation, the shortest diameter and the longest diameter of a tumor in each mouse were measured by using an electronic digital caliper (Digimatic™ caliper, Mitutoyo Corporation), so as to calculate the volume of the tumor in accordance with the following calculation formula: Tumor volume(mm^3)=Longest diameter(mm)×Shortest diameter(mm)×Shortest diameter(mm)/2
as §1
as §2, with “more,” for “mom,”, “22.” for “21.”

Chain of FGFR1 protein (P11362 22-822): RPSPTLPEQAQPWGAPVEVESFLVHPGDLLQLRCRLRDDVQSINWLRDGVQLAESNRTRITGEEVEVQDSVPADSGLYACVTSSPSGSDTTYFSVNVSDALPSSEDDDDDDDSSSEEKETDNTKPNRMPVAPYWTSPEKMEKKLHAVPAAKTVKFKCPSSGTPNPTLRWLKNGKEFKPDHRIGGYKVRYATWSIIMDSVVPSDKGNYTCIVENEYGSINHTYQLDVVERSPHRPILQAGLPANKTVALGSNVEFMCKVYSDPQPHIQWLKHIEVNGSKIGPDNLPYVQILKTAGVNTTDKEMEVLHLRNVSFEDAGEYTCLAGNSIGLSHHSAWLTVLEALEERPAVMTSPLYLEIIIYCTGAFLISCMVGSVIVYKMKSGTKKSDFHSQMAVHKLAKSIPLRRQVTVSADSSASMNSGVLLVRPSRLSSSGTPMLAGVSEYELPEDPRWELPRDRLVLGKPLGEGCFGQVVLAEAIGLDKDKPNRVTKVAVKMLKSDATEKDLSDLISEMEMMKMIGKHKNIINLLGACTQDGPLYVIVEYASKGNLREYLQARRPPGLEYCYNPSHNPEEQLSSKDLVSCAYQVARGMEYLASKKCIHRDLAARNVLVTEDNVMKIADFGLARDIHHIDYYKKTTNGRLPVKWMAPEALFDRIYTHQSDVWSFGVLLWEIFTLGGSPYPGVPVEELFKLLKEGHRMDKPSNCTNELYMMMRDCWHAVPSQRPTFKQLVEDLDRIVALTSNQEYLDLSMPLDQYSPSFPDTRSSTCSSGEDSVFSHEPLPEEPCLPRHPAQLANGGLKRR

Structure (SMILES): CNC(=O)n1ccc2cc(Oc3ccnc(NC(=O)c4ccc(C5CCNCC5)cc4)c3)c(OC)cc21 [Example 1, 6-Methoxy-N-methyl-5-((2-(4-(piperidin-4-yl)benzamide)pyridin-4-yl)oxy)-1H-indole-1-carboxamide]
- IC50 [1]: 7.5 nM
- IC50 [2]: 9.8 nM
- IC50 [3]: 98.7 nM

Structure (SMILES): CCN1CCC(c2ccc(C(=O)Nc3cc(Oc4cc5ccn(C(=O)NC)c5cc4OC)ccn3)cc2)CC1 [Example 2, 5-((2-(4-(1-Ethylpiperidin-4-yl)benzamide)pyridin-4-yl)oxy)-6-methoxy-N-methyl-1H-indole-1-carboxamide]
- T/C (%) ([4]; 6.25 mg/kg): 51%
- T/C (%) ([4]; 12.5 mg/kg): 28%
- T/C (%) ([4]; 25 mg/kg): 18%
- T/C (%) ([5]; 6.25 mg/kg): 36%
- T/C (%) ([5]; 12.5 mg/kg): 19%
- T/C (%) ([5]; 25 mg/kg): 11%

Structure (SMILES): CCOc1cc2c(ccn2C(=O)NC)cc1Oc1ccnc(NC(=O)c2ccc(C3CCN(CC)CC3)cc2)c1 [Example 16, 6-Ethoxy-5-((2-(4-(1-ethylpiperidin-4-yl)benzamide)pyridin-4-yl)oxy)-N-methyl-1H-indole-1-carboxamide]
- T/C (%) ([4]; 6.25 mg/kg): 39%
- T/C (%) ([4]; 12.5 mg/kg): 21%
- T/C (%) ([4]; 25 mg/kg): 15%
- T/C (%) ([5]; 6.25 mg/kg): 50%
- T/C (%) ([5]; 12.5 mg/kg): 25%
- T/C (%) ([5]; 25 mg/kg): 15%

Structure (SMILES): CNC(=O)n1ccc2cc(Oc3ccnc(NC(=O)c4ccc(C5CCN(C)CC5)cc4)c3)c(OCCOC)cc21 [Example 21, 6-(2-Methoxyethoxy)-N-methyl-5-((2-(4-(1-methylpiperidin-4-yl)benzamide)pyridin-4-yl)oxy)-1H-indole-1-carboxamide]
- T/C (%) ([4]; 6.25 mg/kg): 49%
- T/C (%) ([4]; 12.5 mg/kg): 26%
- T/C (%) ([4]; 25 mg/kg): 16%
- T/C (%) ([4]; 50 mg/kg): 7%
- T/C (%) ([5]; 6.25 mg/kg): 36%
- T/C (%) ([5]; 12.5 mg/kg): 18%
- T/C (%) ([5]; 25 mg/kg): 10%
- T/C (%) ([5]; 50 mg/kg): 6%
